Where two headings read alike, the source gives them in different places.
Tested on: sporozoites of Eimeria tenella
Assay: Viability of Eimeria tenella sporozoites after 24 hours incubation with test compound (trypan blue exclusion)
Assay type: cell-based
Conditions: for percentage inhibition (effectiveness): concentration of 10 ppm; for inhibition at 100 ppm: Eimeria tenella, read-out: percentage inhibition (inhibitory or destructive effect on the sporozoites)
Method: The antiparasitic properties of the following compounds were tested: • a capsicum oleoresin (Capsicum frutescens pigment) containing 6% by weight of a mixture of capsaicin and dihydrocapsaicin; • carvacrol; • cinnamaldehyde; • curcumin; • anethole; • PTS (according to the invention); • PTSO (according to the invention); and • an extract (according to the invention) called “Garlicon 40” containing […] of organosulfur compounds characteristic of garlic/onion, 6.7% by weight of PTS and 34.3% by weight of PTSO.
A first series of samples consisting of an aqueous solution containing 100 ppm of the abovementioned test compounds, and a second series of samples containing only 10 ppm of these compounds, were prepared.
Next, in order to be able to test the effect of the abovementioned compounds on Eimeria, the following was carried out. Freshly sporulated oocysts were obtained from Eimeria tenella and were stored at 4° C. in a 2.5% (weight/volume) potassium dichromate solution until use.
The oocysts were then sterilized with bleach before isolating sporozoites. The walls of the oocysts were mechanically destroyed for 5 to 7 seconds using a ball mill having balls of 0.5 mm.
The product obtained was then incubated for 45 minutes at 41° C. in a PBS buffer solution containing 0.014 mol/l of taurodeoxycholic acid and 0.25% by weight of trypsin in order to release the sporozoites.
The fluids released by the excystation were filtered and the sporozoites collected were washed three times with RPMI-1640 medium with stirring at 2100 revolutions per minute for 10 minutes at 4° C.
Solutions of 10^6 sporozoites per milliliter were then prepared, and were left to incubate with the same volume of sample of test compound for 24 hours.
The viability of the sporozoites was then measured according to the trypan blue exclusion method.
The results can be seen on the appended single figure, in which the numbers located above each column indicate the percentage inhibition by the corresponding compound and the numbers which follow the name of the compound indicate its concentration.
A measurement was also carried out with a control solution (free of test compound) called “Control” on the figure.

[1] = concentration of 100 ppm, 24 hours incubation

Compound | percentage inhibition (effectiveness) (24 hours incubation) | inhibition at 100 ppm [1] | further results
CCCS[S+]([O-])CCC (stereo not drawn) [PTS, di(n-propyl) thiosulfinate] | 87% |  | 
CCCSS(=O)(=O)CCC [PTSO, di(n-propyl) thiosulfonate] | 61% |  | effectiveness at 10 ppm compared with 100 ppm (10 ppm versus 100 ppm): higher effectiveness at 10 ppm than at 100 ppm
Cc1ccc(C(C)C)cc1O [carvacrol] |  |  | inhibition at 100 ppm (24 h): ≥ 74%
O=CC=Cc1ccccc1 [cinnamaldehyde] |  | ≥ 74% | 
COc1cc(/C=C/C(=O)CC(=O)/C=C/c2ccc(O)c(OC)c2)ccc1O [curcumin] |  | ≥ 74% | 

— patent US20130079402A1, “Use of at Least One Dialkyl Thiosulfonate or Thiosulfinate for Reducing the Number of Apicomplexa in an Animal” (Pancosma S.A., priority 2010, published 2013)
